Where “and” joins values, the source holds several entries; their conditions need not be identical. Equal values may be shown once.
Experiments:
Sarcoma 180a = assay: Sarcoma 180 ascites (S180a) antitumor screening; assay type: in vivo, female CFW mice; conditions: for %ILS: single ip on day 1, in water; for %ILS / activity against Sarcoma 180a: ILS > 50% indicates activity; for Surv: survivors per group of 6 mice; for maximum ILS: Sarcoma 180a, at 20 mg/kg; for maximum ILS / activity against Sarcoma 180a: single ip administration on Day 1; for activity against Sarcoma 180a: result in words
Description: (§1) All of the compounds of the Examples were tested against Sarcoma 180a in female CFW mice via single ip administration on Day 1. Two of the compounds were active in this system: cis -[Pt(NH3)2(4-iodoaniline)CI]N03 (maximum ILS = 81% at 20 mg/kg) and cis -[Pt(NH3)2(3-iodoaniline)Cl]NO3 (maximum ILS = 83% at 20 mg/kg). The remaining compounds were not active. cis -[Pt(NH3)2(4-iodoaniline)Cl]NO3 was also tested against L1210 leukemia in female CDF1 mice via single ip administration on Day 1.
Female CFW mice (18-25g) were implanted with 2 x 10^6 cells ip on day zero. Compounds were administered in 0.5 mL of water ip on day one. Groups of 6 mice were used for each test dose as well as controls as defined above. The test was run for twice the MST of the control group, with survivors counted as dying on that day. An ILS of > 50% indicates activity. The tumor line was maintained through weekly transfer of 4 x 10^6 cells in CFW mice.

L1210 leukemia = assay: L1210 antitumor screening; assay type: in vivo, female CDF1 mice
Description: as §1
L1210 screening was conducted according to a published method. See Rose, et al, Cancer Treat. Repts ., 1982 , 66 , 135, which is incorporated herein by reference. Female CDF, mice (16-22g) were implanted with 1 x 10^6 tumor cells ip on day zero. Compounds were administered in 0.5 mL of water ip on day one. Groups of 6 mice were used for each dose. A control group of mice received only tumor and 0.5 mL of water. A positive control group received tumor and 8 mg/kg cisplatin in 0.5 mL of 0.15 M NaCI. The test was terminated after three times the mean survival time (MST) of the control group. Surviving mice were counted as dying on that day. Activity was determined based on the percent increase in MST of test mice over controls (%ILS). An ILS of > 25% represents activity. The tumor line was maintained through weekly transfer of 5 x 10^4 cells in DBA/2 mice.

[1] = S180a, dose 1.25 mg/kg ip day 1

[NH2][Pt]([NH2])([Cl])[Cl] [Positive Control, cisplatin, reference compound]
Positive Control SURV (Sarcoma 180a; S180a, positive control group: 8 mg/kg cisplatin in 0.15 M NaCl ip day 1, survivors per 6 mice): 4/6 and 5/6 and 6/6 | Positive Control %ILS (Sarcoma 180a; S180a, positive control group: 8 mg/kg cisplatin in 0.5 mL of 0.15 M NaCl ip day 1): 92% and 95% and 98% | Positive Control SURV (L1210 leukemia; L1210, positive control group: 8 mg/kg cisplatin in 0.15 M NaCl ip day 1, survivors per 6 mice): 5/6 | Positive Control %ILS (L1210 leukemia; L1210, positive control group: 8 mg/kg cisplatin in 0.5 mL of 0.15 M NaCl ip day 1): 190%

N.N.Nc1cccc(I)c1.O=[N+]([O-])[O-].[Cl-].[Pt+2] [cis-[Pt(NH3)2(3-iodoaniline)Cl]NO3]
%ILS (Sarcoma 180a; S180a, dose 1.25 mg/kg): -3% | %ILS (Sarcoma 180a; S180a, dose 2.5 mg/kg): 9% | %ILS (Sarcoma 180a; S180a, dose 5 mg/kg): 23% | %ILS (Sarcoma 180a; S180a, dose 10 mg/kg): 51% | %ILS (Sarcoma 180a; S180a, dose 20 mg/kg): 83% | %ILS (Sarcoma 180a; S180a, dose 40 mg/kg): 66% | Surv (Sarcoma 180a; [1]): 0/6 | Surv (Sarcoma 180a; S180a, dose 2.5 mg/kg ip day 1): 0/6 | Surv (Sarcoma 180a; S180a, dose 5 mg/kg ip day 1): 0/6 | Surv (Sarcoma 180a; S180a, dose 10 mg/kg ip day 1): 1/6 | Surv (Sarcoma 180a; S180a, dose 20 mg/kg ip day 1): 2/6 | Surv (Sarcoma 180a; S180a, dose 40 mg/kg ip day 1): 4/6 | maximum ILS (Sarcoma 180a): 83% | activity against Sarcoma 180a (Sarcoma 180a): active

N.N.Nc1ccc(Br)cc1.O=[N+]([O-])[O-].[Cl][Pt+] [cis-[Pt(NH3)2(4-bromoaniline)Cl]NO3]
%ILS (Sarcoma 180a; S180a, dose 1.25 mg/kg): 2% | %ILS (Sarcoma 180a; S180a, dose 2.5 mg/kg): 7% | %ILS (Sarcoma 180a; S180a, dose 5 mg/kg): 38% | %ILS (Sarcoma 180a; S180a, dose 10 mg/kg): 44% | %ILS (Sarcoma 180a; S180a, dose 20 mg/kg): -14% | %ILS (Sarcoma 180a; S180a, dose 40 mg/kg): -74% | Surv (Sarcoma 180a; [1]): 0/6 | Surv (Sarcoma 180a; S180a, dose 2.5 mg/kg ip day 1): 0/6 | Surv (Sarcoma 180a; S180a, dose 5 mg/kg ip day 1): 0/6 | Surv (Sarcoma 180a; S180a, dose 10 mg/kg ip day 1): 1/6 | Surv (Sarcoma 180a; S180a, dose 20 mg/kg ip day 1): 2/6 | Surv (Sarcoma 180a; S180a, dose 40 mg/kg ip day 1): 0/6

N.N.Nc1ccc(F)cc1.O=[N+]([O-])[O-].[Cl-].[Pt+2] [cis-[Pt(NH3)2(4-fluoroaniline)Cl]NO3, cis-[Pt(NH3)2(4-fluoraniline)Cl]NO3]
%ILS (Sarcoma 180a; S180a, dose 1.25 mg/kg): 6% | %ILS (Sarcoma 180a; S180a, dose 2.5 mg/kg): 14% | %ILS (Sarcoma 180a; S180a, dose 5 mg/kg): 27% | %ILS (Sarcoma 180a; S180a, dose 10 mg/kg): 45% | %ILS (Sarcoma 180a; S180a, dose 20 mg/kg): -48% | %ILS (Sarcoma 180a; S180a, dose 40 mg/kg): -77% | Surv (Sarcoma 180a; [1]): 0/6 | Surv (Sarcoma 180a; S180a, dose 2.5 mg/kg ip day 1): 0/6 | Surv (Sarcoma 180a; S180a, dose 5 mg/kg ip day 1): 0/6 | Surv (Sarcoma 180a; S180a, dose 10 mg/kg ip day 1): 0/6 | Surv (Sarcoma 180a; S180a, dose 20 mg/kg ip day 1): 1/6 | Surv (Sarcoma 180a; S180a, dose 40 mg/kg ip day 1): 0/6

N.N.Nc1ccc(Cl)cc1.O=[N+]([O-])[O-].[Cl][Pt+] [cis-[Pt(NH3)2(4-chloroaniline)Cl]NO3]
%ILS (Sarcoma 180a; S180a, dose 1.25 mg/kg): 3% | %ILS (Sarcoma 180a; S180a, dose 2.5 mg/kg): 9% | %ILS (Sarcoma 180a; S180a, dose 5 mg/kg): 40% | %ILS (Sarcoma 180a; S180a, dose 10 mg/kg): 44% | %ILS (Sarcoma 180a; S180a, dose 20 mg/kg): -51% | %ILS (Sarcoma 180a; S180a, dose 40 mg/kg): -77% | Surv (Sarcoma 180a; [1]): 0/6 | Surv (Sarcoma 180a; S180a, dose 2.5 mg/kg ip day 1): 0/6 | Surv (Sarcoma 180a; S180a, dose 5 mg/kg ip day 1): 0/6 | Surv (Sarcoma 180a; S180a, dose 10 mg/kg ip day 1): 0/6 | Surv (Sarcoma 180a; S180a, dose 20 mg/kg ip day 1): 0/6 | Surv (Sarcoma 180a; S180a, dose 40 mg/kg ip day 1): 0/6

N.N.Nc1ccc(I)cc1.O=[N+]([O-])[O-].[Cl-].[Pt+2] [cis-[Pt(NH3)2(4-iodoaniline)Cl]NO3, cis-(Pt(NH3)2(4-iodoaniline)Cl]NO3]
%ILS (Sarcoma 180a; S180a, dose 0.63 mg/kg): 12% | %ILS (Sarcoma 180a; S180a, dose 1.25 mg/kg): -1% | %ILS (Sarcoma 180a; S180a, dose 2.5 mg/kg): 22% | %ILS (Sarcoma 180a; S180a, dose 5 mg/kg): 38% | %ILS (Sarcoma 180a; S180a, dose 10 mg/kg): 39% | %ILS (Sarcoma 180a; S180a, dose 20 mg/kg): 81% | Surv (Sarcoma 180a; S180a, dose 0.63 mg/kg ip day 1): 0/6 | Surv (Sarcoma 180a; [1]): 0/6 | Surv (Sarcoma 180a; S180a, dose 2.5 mg/kg ip day 1): 0/6 | Surv (Sarcoma 180a; S180a, dose 5 mg/kg ip day 1): 0/6 | Surv (Sarcoma 180a; S180a, dose 10 mg/kg ip day 1): 0/6 | Surv (Sarcoma 180a; S180a, dose 20 mg/kg ip day 1): 2/6 | maximum ILS (Sarcoma 180a): 81% | activity against Sarcoma 180a (Sarcoma 180a): active | %ILS (L1210 leukemia; L1210, dose 1.25 mg/kg, single ip on day 1, ILS > 25% represents activity): 14% | Surv (L1210 leukemia; L1210, survivors per group of 6 mice, dose 1.25 mg/kg ip day 1): 0/6 | maximum ILS (L1210 leukemia; L1210 leukemia, at 10 mg/kg, single ip administration on Day 1): 37% | activity against L1210 leukemia (L1210 leukemia; result in words, single ip administration on Day 1, ILS > 25% represents activity): moderate level of activity
